Where two headings read alike, the source gives them in different places.
Experiments:
[1] = molecular target: human NR1/NR2A (Homo sapiens (Human), UniProt Q05586+Q12879); experiment: NR2A antagonist activity: calcium influx (Fluo-4) assay in HEK293 cells; type: cell-based
Method: Activation of the NR2A or NR2B subtype of NMDA receptor with glutamate as an agonist and glycine co-agonist on these cells results in calcium influx, which can be monitored with fluorescent indicator Fluo-4.
For experiments, the cells were seeded onto poly-D-lysine-coated 96-well black plates with clear bottom (Corning) at a density of ˜50,000 cells/well. After overnight culture, the growth medium was removed from the wells and the cells were incubated at 37° C. for 60 minutes in Hanks buffer containing 4 μM fluo-4-AM (Invitrogen) and 0.1% bovine serum albumin (BSA). After dye-loading, the cells were washed three times with Hanks buffer and incubated for 10 minutes at room temperature with various concentrations of test compounds prepared in Hanks buffer with 0.1% BSA. The cell plates were placed onto an FDSS Cell fluorescence reader (Hamamatsu). After 20 seconds of reading background fluorescence, agonist glutamate at final 100 µM and co-agonist glycine at final 50 μM were added to the cells to activate the receptor, and the resulting fluorescence changes were recorded and quantified. Based on the changes in fluorescence intensity, the pharmacological effect of test compounds was analyzed and the IC50 values derived from a non-linear least squares fitting of the concentration-dependent response to a standard logistic equation using Prism (Graphpad Software, Inc.): Amplitude=Max Amplitude/(1+(IC50/[antagonist])^n).

[2] = molecular target: human NR1/NR2B (Homo sapiens (Human), UniProt Q05586+Q13224); experiment: NR2B antagonist activity: calcium influx (Fluo-4) assay in HEK293 cells; type: cell-based; settings: read-out: NR2B IC50
human NR1/NR2B, sequence (Q13224 27-1484, other chains not shown): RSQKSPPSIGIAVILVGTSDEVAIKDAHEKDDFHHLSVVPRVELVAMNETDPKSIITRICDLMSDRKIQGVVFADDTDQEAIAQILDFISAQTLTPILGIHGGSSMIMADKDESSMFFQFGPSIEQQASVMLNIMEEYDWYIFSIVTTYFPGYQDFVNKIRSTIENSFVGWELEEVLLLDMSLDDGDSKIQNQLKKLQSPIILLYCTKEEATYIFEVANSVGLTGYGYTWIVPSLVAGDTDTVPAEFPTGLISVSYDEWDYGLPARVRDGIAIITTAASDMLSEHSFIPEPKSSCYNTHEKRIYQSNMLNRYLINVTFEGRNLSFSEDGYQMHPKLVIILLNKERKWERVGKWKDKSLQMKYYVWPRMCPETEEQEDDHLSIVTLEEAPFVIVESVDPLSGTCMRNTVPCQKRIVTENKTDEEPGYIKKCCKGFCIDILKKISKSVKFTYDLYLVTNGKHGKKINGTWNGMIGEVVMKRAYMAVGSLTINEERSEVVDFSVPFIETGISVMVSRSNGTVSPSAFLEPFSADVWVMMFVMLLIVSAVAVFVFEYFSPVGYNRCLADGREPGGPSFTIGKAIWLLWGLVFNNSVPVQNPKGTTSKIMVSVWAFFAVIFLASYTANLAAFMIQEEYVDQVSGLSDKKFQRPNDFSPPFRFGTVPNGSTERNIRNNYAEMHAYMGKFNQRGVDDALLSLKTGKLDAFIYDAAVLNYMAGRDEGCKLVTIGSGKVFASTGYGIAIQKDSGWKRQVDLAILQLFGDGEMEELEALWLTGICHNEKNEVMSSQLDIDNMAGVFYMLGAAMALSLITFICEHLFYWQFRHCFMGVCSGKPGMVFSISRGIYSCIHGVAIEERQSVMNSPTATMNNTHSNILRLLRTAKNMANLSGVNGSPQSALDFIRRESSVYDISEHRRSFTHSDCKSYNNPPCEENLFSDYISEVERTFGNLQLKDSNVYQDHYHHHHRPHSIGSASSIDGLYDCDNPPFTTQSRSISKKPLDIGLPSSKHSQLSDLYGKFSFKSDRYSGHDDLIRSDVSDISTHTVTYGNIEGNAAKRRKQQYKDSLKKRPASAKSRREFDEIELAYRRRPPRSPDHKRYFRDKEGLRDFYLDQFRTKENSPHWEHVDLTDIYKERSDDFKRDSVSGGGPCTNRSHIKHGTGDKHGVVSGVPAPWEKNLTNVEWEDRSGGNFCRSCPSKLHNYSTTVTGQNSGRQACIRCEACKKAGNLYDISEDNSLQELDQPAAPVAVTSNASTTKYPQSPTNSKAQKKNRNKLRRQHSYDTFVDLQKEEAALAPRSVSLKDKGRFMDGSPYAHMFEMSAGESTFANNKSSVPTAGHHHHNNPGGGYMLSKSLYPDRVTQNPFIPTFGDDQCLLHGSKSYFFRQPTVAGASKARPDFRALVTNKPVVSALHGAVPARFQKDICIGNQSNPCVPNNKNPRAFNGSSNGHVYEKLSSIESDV
Procedure, shortened: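 HEK293 cells expressing NR1/NR2A or NR1/NR2B, loaded with fluo-4-AM, preincubated 10 min at room temperature with compound in Hanks buffer/0.1% BSA.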

[3] = molecular target: hERG channel (Homo sapiens (Human), UniProt Q12809); experiment: hERG channel inhibition, whole cell patch clamp in HEK293 cells; type: cell-based; settings: human, HEK293 cells stably expressing hERG channel, pH 7.35; 10 μM
hERG channel, sequence (Q12809 whole entry): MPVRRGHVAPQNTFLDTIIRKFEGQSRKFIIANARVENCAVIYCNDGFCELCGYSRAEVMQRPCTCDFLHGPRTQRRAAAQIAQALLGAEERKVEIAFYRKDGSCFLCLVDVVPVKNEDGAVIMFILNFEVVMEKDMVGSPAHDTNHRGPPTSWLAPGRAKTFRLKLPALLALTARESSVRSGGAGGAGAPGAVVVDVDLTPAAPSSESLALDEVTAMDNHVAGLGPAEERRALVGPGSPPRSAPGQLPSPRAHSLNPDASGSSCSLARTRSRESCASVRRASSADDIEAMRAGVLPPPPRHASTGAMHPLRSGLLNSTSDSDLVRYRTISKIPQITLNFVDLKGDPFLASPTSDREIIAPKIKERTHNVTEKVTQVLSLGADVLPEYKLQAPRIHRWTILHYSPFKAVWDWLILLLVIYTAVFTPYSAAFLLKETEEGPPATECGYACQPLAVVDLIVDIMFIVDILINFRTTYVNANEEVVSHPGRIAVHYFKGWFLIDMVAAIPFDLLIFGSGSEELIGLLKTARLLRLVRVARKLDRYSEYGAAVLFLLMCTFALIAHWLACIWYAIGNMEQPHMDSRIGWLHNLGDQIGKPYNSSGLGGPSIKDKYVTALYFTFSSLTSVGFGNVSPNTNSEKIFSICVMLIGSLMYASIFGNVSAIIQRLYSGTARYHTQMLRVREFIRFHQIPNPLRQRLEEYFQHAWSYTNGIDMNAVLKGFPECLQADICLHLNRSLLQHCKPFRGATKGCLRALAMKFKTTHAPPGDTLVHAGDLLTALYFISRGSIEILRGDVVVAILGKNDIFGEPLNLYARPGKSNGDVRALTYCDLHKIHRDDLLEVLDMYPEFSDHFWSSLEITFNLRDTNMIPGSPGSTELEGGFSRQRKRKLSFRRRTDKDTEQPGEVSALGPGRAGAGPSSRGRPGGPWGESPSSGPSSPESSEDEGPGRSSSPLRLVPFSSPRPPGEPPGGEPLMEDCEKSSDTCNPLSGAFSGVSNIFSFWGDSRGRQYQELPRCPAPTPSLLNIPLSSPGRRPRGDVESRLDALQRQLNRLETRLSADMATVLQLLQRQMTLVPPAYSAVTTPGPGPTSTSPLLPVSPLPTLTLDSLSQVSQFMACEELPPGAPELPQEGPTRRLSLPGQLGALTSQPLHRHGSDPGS
Method: The assay was performed on hERG channel stably expressed in HEK293 cells. The cells were cultured at 37° C. in a humidified CO2 incubator in the growth medium consisting of DMEM, 10% fetal bovine serum and antibiotics. Prior to the assay, the cells were seeded onto a 12-mm PDL-coated glass coverslip and cultured in a 35-mm Petri dish. After 16 to 40 hours culture, the coverslip was transferred into the chamber of OctaFlow perfusion system (ALA Instrument) and under a constant flow of extracellular solution (140 mM NaCl, 4 mM KCl, 1 mM MgCl2, 2 mM CaCl2, 10 mM HEPES, 10 mM D-glucose, pH 7.35, osmolarity 290). Whole cell patch clamping was performed with a glass micropipette filled with intracellular solution (120 mM KCl, 1.75 mM MgCl2, 5.4 mM CaCl2, 10 mM HEPES, 10 mM EGTA, and 4 mM ATP-K2, pH 7.2, osmolarity 310). Giga-seal was maintained during the test. The voltage control and current measurement were carried out using Axon amplifier 700B, Digidata 1440A and CLAMPEX10 software (Molecular Devices). Whole-cell hERG currents were recorded following the Petroski protocol: the cell was held at −80 mV, and the voltage step jumped from −80 to 30 mV and stay for 2 seconds with a 20-millisecond prepulse at −40 mV. After depolarization, the voltage was decreased to −40 mV and stay for 2 seconds, and returned back to −80 mV. Test compound was applied by quartz capillary tubes tip (200 m inner diameter), and the flow rate was controlled at 2-3 mL/min with OctaFlow perfusion system. Different concentrations of the compound were applied to the cells for 5 minutes and the hERG current was measured three times before, during and after compound treatment. The data were analyzed using Clampfit 10 software (Molecular Devices) to generate IC50 values.

[4] = molecular target: CYP2D6 (Homo sapiens (Human), UniProt P10635); experiment: CYP P450 enzyme inhibition in pooled human liver microsomes (dextromethorphan probe); type: in vitro ADME; settings: human, pooled human liver microsomes, pH 7.4, probe dextromethorphan, 5 μM; 10 μM; read-out: CYP2D6 Inhibiton at 10 μM
CYP2D6, sequence (P10635 whole entry): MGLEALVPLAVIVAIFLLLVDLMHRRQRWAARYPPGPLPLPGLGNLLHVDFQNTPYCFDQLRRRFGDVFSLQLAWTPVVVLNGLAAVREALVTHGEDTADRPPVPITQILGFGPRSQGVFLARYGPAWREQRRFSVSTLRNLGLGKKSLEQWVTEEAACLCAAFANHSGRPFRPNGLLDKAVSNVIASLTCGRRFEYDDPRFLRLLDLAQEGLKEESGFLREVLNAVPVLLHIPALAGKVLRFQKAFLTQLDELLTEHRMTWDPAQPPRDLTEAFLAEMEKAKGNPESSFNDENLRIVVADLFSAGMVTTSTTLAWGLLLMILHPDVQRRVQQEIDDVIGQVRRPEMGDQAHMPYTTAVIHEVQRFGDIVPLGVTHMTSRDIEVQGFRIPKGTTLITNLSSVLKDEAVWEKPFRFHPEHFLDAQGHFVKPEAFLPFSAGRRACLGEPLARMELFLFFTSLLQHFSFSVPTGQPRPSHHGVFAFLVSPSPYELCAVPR
Method: Test compound concentration-dependent response studies were performed in triplicate.

[5] = single subcutaneous administration, highest dose tested; cited from earlier work
[6] = after 8 weeks of treatment; cited from earlier work
[7] = 18 patients, 6-19 years of age; cited from earlier work
[8] = Table 1.1B, read-out: NR2A IC50

human NR1/NR2A, sequence (Q12879 23-1464, other chains not shown): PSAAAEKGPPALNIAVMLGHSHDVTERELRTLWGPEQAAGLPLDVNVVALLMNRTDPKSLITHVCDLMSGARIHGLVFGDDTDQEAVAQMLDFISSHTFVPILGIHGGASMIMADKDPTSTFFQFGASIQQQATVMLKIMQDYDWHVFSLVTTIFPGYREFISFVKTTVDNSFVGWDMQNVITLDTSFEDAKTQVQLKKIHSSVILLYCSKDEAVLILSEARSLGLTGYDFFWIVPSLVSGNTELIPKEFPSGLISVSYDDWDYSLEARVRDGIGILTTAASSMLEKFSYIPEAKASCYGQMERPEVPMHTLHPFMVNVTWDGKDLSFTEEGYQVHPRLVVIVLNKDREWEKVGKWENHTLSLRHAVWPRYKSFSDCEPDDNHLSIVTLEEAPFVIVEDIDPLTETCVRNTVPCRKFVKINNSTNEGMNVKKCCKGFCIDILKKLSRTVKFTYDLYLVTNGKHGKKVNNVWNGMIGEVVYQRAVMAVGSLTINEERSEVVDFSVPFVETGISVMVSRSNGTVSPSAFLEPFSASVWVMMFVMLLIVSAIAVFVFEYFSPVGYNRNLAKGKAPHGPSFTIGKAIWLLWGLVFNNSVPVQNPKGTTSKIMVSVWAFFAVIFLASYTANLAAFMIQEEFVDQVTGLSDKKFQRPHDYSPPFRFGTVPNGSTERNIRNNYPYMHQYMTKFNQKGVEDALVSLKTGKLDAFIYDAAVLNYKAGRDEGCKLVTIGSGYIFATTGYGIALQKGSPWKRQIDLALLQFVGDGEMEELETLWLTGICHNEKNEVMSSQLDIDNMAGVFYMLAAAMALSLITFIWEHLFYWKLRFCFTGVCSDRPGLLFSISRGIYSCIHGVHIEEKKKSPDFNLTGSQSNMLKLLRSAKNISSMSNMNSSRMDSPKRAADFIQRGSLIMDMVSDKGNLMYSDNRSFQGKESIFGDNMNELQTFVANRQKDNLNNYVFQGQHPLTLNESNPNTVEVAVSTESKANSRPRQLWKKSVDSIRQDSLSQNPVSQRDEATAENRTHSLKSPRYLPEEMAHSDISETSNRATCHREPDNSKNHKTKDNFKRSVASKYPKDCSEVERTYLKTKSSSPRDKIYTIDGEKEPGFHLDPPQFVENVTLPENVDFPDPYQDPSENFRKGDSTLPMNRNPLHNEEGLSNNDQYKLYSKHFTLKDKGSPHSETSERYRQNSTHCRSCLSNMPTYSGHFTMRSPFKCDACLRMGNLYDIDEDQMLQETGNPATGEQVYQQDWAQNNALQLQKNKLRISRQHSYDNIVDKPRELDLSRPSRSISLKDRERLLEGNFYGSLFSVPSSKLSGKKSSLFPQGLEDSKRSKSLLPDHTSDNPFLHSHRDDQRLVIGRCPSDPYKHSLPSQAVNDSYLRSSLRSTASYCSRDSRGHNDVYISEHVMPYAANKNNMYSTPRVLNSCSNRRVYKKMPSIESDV

SMILES	IC50 [1, 8] [µM]	inhibition at 5 min, 10 µM [3] [%]	inhibition at 10 min, 10 µM [4] [%]	further results
FC(F)(CN1CCC(Nc2ncnc3[nH]ccc23)CC1)c1ccccn1 [C-1^A′]				IC50 [1]: > 10 µM
CCc1ccc(COC(=O)N2CC[C@H](CNc3nccn4cnnc34)C(F)(F)C2)cc1 [E1-1.5^B′]	> 10	46	28	IC50 ([2]; Table 1.1B): 9.6 nM; IC50 ([2]; Table 1.3B): 9.6 nM; IC50 ([2]; Table 1.4B): 9.6 nM
Cc1ccc(COC(=O)N2CC[C@H](CNc3ncc4cn[nH]c4n3)C(F)(F)C2)cc1 [E1-8.2^B′]	> 10	57	83	
Cc1ccc(COC(=O)N2CC[C@H](CNc3nc4ccccn4n3)C(F)(F)C2)cc1 [E1-9.2^B′]	> 10	38	14	
C[C@@H](CN1CCC(Cc2ccccc2)CC1)[C@@H](O)c1ccc(O)cc1 [Ro25-6981]				efficacy in the Marble Burying Test [5]: modest efficacy
CC12CC3CC(C)(C1)CC(N)(C3)C2 [memantine]				remission [6]: 89%; response [6]: 100%; patients who developed adverse effects [7]: seven out of 18

Source: patent US11752155B2, “Treatment of autism spectrum disorders, obsessive-compulsive disorder and anxiety disorders” (Rugen Holdings (Cayman) Limited, priority 2016, dated 2023)
